Data reported in ChEMBL document CHEMBL1201862, “PubChem BioAssay data set” (2004).
Activity calls are given as the source filed them.

Assays:
[1] = inhibitors of intracellular T. cruzi replication, confirmation, NIH3T3 host cells, beta-gal luminescence (AID 2044); assay type: functional, cell-based;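 also: intracellular parasites grown in NIH/3T3 mouse fibroblasts as host cells; luminescent beta-galactosidase reporter signal from transgenic T. cruzi replicating inside host cells; inhibitors lower the luminescence signal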
[2] = cytotoxicity toward NIH3T3 fibroblasts, dose response, counter-screen, cell-based, ATP luminescence, mouse fibroblasts (AID 2010); assay type: functional; settings: NIH3T3;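 also: cells exposed to compound for about 90 hours before reading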
[3] = cytotoxicity in HEK-293T cells, dose response, cytotoxicity control for BCR NF-kB inhibitor project, luminescence, B-cell screen hits (AID 489021); assay type: functional, cell-based;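 also: HEK-293T cells carrying an NF-kB luciferase reporter; cells exposed to compound for about 14 hours before viability readout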
INS1 = assay: beta cell apoptosis inhibitors, cytokine rescue, dose response, luminescence, retest (AID 449756); assay type: functional, cell-based; settings: Rattus norvegicus;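 also: cell death triggered by IL-1 beta plus TNF-alpha plus IFN-gamma mixture; protective hits raise ATP signal compared with cytokine alone wells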
[4] = target: Voltage-dependent T-type calcium channel subunit alpha-1H (Homo sapiens, UniProt O95180); assay type: functional;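 also: channel activity triggered by adding a high calcium stimulation buffer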
[5] = target: T1, Ubiquitin-conjugating enzyme E2 N (Homo sapiens, UniProt P61088); assay type: functional;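 also: Dose-response confirmation in a TR-FRET assay detecting UBC13-driven polyubiquitin chain formation, inhibition measured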
T1 sequence (P61088 whole entry): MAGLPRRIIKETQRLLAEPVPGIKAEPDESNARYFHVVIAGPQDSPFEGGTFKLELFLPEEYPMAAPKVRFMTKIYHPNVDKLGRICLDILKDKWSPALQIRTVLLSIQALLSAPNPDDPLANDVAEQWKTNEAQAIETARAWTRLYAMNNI

[6] = target: T2, DNA repair protein RAD52 homolog (Homo sapiens, UniProt P43351); assay type: functional, biochemical
T2 sequence (P43351 whole entry): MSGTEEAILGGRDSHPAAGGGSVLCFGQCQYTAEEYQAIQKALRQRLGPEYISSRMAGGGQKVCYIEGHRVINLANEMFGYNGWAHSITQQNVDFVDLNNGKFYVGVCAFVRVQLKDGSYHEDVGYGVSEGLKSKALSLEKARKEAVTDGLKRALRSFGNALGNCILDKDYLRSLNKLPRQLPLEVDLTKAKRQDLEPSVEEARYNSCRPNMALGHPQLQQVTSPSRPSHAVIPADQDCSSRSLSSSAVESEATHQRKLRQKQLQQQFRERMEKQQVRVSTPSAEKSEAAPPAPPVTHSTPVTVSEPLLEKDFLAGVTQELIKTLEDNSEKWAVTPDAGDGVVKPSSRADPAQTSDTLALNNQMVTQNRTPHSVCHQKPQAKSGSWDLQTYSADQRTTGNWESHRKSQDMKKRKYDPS

[7] = target: T3, Replicative DNA helicase DnaB (Mycobacterium tuberculosis, UniProt P9WMR3); assay: DnaB intein splicing inhibitors, dose response, biochemical, cell-free fluorescence (AID 449749); assay type: functional
T3 sequence (P9WMR3 whole entry): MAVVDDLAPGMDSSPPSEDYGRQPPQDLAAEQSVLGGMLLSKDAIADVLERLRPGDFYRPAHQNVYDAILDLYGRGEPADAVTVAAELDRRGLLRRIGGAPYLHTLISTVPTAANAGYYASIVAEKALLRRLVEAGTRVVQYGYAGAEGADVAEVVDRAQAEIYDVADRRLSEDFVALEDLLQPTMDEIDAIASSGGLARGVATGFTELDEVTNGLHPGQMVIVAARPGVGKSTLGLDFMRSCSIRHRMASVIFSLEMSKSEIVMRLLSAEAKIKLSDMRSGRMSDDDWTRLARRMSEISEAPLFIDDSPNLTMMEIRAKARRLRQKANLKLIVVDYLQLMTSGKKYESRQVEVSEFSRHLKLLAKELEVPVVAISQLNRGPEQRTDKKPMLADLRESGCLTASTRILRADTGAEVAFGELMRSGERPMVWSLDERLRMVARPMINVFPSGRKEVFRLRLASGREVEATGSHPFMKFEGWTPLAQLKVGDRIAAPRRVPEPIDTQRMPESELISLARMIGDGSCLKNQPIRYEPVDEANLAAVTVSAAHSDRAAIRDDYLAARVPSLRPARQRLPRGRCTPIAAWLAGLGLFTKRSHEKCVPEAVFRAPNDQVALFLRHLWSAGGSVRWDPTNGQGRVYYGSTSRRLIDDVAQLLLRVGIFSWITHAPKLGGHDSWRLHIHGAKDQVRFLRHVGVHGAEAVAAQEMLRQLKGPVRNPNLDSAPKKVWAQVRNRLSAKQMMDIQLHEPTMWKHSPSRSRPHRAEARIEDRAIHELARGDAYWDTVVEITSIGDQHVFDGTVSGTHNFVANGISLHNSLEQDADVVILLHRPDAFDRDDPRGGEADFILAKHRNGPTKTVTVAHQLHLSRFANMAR

Protein RecA = target: T4, Protein RecA (Mycobacterium tuberculosis, UniProt P9WHJ3); assay: Fluorescence Cell-Free Homogeneous Dose Retest to Identify Inhibitors of RecA-Intein Splicing Activity. [Related pubchem assays (depositor defined):AID2097, AID2223, AID489010, AID492950]; assay type: functional
T4 sequence (P9WHJ3 whole entry): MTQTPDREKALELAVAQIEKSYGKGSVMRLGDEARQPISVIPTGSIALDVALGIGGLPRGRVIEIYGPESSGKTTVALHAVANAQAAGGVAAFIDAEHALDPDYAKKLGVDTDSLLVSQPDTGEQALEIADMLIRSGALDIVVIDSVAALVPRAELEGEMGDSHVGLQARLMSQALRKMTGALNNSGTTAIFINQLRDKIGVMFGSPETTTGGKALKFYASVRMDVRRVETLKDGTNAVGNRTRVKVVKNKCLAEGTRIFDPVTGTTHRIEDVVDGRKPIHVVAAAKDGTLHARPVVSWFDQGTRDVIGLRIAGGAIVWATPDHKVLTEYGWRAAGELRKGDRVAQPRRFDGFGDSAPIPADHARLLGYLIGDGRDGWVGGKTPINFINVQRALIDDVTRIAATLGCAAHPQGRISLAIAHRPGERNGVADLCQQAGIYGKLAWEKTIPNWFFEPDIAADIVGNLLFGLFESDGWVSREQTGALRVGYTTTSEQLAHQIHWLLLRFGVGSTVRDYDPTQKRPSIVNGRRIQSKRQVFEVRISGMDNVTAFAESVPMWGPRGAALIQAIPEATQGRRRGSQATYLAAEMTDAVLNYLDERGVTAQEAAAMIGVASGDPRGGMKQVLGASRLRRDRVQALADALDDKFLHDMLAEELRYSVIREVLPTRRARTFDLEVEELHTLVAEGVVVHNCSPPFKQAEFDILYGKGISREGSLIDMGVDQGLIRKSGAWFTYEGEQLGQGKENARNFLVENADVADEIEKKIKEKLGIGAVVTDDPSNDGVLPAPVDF

[8] = microbe, parasite or virus in culture; assay type: functional; settings: Mycobacterium tuberculosis
[9] = target: Induced myeloid leukemia cell differentiation protein Mcl-1 (Homo sapiens, UniProt Q07820); assay type: functional
[10] = inhibitors of HIV Env-driven cell fusion, dose response, cherry-pick (AID 652057); assay type: functional, cell-based
[11] = NIH-3T3 fibroblast cytotoxicity, dose response, cytotoxicity control, cell-based, fluorescence, Alamar Blue, secondary assay (AID 2327); assay type: functional;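 also: NIH-3T3 mouse fibroblasts cultured with fluconazole at 8 µg/mL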
HEK293 [12] = assay: NOD1 signaling inhibitors, primary screen, cell-based, luminescence, uHTS (AID 1578); assay type: functional; settings: Homo sapiens
HEK293 [13] = assay: cells; assay type: functional, cell-based; settings: Homo sapiens
[14] = C. albicans growth with fluconazole, confirmation, fluorescence, retest (AID 2467); assay type: functional, cell-based
HEK293 [15] = assay: cells; assay type: functional, cell-based; settings: Homo sapiens; remark: listed apart in the source
HEK293 [16] = assay: NOD2 signaling inhibitors in MDP-stimulated cells, cell-based, uHTS, luminescence (AID 2001); assay type: functional; settings: Homo sapiens
[17] = inhibitors of firefly luciferase expression or activity, dose response, H4 neuroglioma cells, luminescence (AID 1990); assay type: functional, cell-based
[18] = Luminescence Cell-Based Dose Response HTS to Identify Inhibitors of 5'UTR Stem-Loop Driven Prion Protein mRNA Translation in H4 Neuroglioblastoma Cells. [Related pubchem assays: 1827 (Project Summary), 1813 (Primary HTS)]; assay type: functional
[19] = inhibitors of SNCA 5'UTR-driven reporter translation, confirmation, H4 neuroglioma cells, luminescence (AID 1988); assay type: functional, cell-based
[20] = target: T5, Rac GTPase-activating protein 1 (Homo sapiens, UniProt Q9H0H5); assay: MgcRacGAP GTPase-activating activity inhibitors, confirmation, biochemical, ADP Hunter fluorescence, primary and confirmatory (AID 624330); assay type: functional
T5 sequence (Q9H0H5 whole entry): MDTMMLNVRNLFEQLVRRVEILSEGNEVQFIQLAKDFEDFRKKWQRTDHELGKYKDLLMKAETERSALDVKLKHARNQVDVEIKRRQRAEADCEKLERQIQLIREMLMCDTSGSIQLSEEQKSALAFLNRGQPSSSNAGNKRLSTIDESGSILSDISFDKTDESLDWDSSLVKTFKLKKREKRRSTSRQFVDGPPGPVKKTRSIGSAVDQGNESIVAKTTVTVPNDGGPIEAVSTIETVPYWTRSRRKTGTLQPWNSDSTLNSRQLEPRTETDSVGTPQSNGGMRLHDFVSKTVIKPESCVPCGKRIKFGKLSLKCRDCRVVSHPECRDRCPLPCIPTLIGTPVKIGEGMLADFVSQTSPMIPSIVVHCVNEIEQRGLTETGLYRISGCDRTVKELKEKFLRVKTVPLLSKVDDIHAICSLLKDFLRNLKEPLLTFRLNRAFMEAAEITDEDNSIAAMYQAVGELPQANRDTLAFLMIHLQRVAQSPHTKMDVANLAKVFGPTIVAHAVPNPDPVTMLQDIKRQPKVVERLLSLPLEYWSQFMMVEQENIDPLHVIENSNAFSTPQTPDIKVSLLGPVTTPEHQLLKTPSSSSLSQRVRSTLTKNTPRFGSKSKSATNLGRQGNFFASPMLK

[21] = Luminescence Cell-Based Dose Retest to Confirm Inhibitors of Cancer Stem Cells. [Related pubchem assays (depositor defined):AID2717, AID2721]; assay type: functional, Homo sapiens; settings: Homo sapiens
Vero = assay: cells; assay type: functional; settings: Chlorocebus sabaeus

Chain of Voltage-dependent T-type calcium channel subunit alpha-1H (O95180 whole entry): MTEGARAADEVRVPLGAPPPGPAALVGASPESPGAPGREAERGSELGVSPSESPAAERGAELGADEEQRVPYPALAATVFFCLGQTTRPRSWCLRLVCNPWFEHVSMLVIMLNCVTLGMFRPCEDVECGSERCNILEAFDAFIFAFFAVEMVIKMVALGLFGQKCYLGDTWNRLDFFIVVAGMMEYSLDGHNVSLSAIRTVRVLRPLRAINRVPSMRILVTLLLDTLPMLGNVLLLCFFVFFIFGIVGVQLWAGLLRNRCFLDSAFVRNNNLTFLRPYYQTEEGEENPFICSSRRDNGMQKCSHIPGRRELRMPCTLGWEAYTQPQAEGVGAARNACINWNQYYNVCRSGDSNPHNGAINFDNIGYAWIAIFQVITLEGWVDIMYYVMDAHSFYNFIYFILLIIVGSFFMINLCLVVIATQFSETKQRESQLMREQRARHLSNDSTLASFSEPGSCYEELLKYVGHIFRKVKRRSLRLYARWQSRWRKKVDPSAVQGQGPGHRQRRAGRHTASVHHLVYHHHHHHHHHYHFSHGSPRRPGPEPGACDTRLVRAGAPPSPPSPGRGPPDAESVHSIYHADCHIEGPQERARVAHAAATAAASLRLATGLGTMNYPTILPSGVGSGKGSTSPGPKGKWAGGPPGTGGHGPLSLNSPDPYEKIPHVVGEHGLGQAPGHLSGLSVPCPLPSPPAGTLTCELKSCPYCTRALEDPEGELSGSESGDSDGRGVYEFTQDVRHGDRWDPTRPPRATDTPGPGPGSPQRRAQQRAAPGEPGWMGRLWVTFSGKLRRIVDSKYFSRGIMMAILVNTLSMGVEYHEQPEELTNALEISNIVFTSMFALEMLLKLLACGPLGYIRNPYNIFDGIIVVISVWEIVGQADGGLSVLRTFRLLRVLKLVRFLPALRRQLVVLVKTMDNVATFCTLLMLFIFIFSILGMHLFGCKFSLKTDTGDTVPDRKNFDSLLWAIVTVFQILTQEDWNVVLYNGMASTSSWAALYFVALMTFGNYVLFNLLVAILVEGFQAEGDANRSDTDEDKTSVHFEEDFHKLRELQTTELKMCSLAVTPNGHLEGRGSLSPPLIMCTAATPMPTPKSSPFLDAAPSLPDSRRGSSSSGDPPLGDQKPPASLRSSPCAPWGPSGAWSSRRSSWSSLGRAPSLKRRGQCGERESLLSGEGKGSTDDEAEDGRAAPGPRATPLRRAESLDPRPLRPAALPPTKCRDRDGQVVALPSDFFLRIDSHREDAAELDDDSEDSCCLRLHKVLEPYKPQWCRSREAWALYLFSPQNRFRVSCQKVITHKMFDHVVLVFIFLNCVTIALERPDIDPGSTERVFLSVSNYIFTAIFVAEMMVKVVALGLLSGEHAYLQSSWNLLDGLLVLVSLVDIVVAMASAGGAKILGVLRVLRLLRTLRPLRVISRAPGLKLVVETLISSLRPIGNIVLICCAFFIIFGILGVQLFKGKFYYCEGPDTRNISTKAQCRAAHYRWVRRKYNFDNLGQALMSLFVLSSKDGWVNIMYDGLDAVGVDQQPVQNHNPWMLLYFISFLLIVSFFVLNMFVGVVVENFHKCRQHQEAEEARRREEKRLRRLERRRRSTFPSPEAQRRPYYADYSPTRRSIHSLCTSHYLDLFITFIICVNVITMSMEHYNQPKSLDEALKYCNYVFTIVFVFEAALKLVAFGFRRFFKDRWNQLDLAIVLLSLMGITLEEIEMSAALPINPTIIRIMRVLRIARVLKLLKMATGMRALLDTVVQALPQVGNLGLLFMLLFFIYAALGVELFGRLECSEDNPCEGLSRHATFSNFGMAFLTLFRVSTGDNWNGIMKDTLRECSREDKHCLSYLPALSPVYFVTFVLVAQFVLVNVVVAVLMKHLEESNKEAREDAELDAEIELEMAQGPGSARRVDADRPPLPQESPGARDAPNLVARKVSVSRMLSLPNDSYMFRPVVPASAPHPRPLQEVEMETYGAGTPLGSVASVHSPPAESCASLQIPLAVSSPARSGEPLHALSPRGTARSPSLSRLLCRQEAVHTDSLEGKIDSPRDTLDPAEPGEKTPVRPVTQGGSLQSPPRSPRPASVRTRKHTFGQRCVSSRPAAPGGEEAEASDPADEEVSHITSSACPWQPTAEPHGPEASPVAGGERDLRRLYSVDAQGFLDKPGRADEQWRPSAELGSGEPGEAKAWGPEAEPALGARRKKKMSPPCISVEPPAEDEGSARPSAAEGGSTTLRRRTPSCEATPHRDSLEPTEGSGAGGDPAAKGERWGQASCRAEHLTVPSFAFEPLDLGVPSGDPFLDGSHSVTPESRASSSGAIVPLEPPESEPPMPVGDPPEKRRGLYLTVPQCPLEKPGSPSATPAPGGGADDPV
Chain of Induced myeloid leukemia cell differentiation protein Mcl-1 (Q07820 whole entry, the tested form may be a part): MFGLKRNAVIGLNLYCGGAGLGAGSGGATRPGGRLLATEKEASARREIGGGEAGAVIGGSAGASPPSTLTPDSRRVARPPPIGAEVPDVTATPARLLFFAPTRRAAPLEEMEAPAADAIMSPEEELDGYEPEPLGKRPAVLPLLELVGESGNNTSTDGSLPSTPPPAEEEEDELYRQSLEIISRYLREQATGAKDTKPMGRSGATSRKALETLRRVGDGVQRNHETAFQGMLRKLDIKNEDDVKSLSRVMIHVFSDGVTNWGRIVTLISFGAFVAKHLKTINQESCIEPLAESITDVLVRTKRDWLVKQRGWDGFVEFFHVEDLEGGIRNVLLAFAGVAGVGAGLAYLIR

Cc1ccc(-c2cn3c([n+]2-c2ccccc2)SCC3)cc1
EC50 [1]: 0.282 µM (active)
EC50 [2]: > 60 µM (not active)
IC50 [3]: > 80 µM (inactive)
AC50 (INS1): 3.11 µM (active)

CN(C)c1ccc(C(c2nnnn2CCOC(=O)Nc2ccc(Cl)cc2)N2CCOCC2)cc1 (configuration not stated)
EC50 [4]: 9.17 µM (active)

COc1ccccc1OCC(=O)N(Cc1nc(-c2ccccc2)no1)C1CCCCC1
EC50 [4]: 5.55 µM (active)

Cc1ccc(-c2nnn(CC(=O)N3CCCc4ccccc43)n2)cc1
EC50 [4]: 3.43 µM (active)

CCN(CC)CCNc1ncnc2c1sc1nc(N3CCOCC3)c3c(c12)CCCC3
IC50 [5]: > 20 µM (inactive)
AC50 [6]: 4.88 µM (active)

CCN(CCN(C)C)C(=O)c1ccc2c(c1NCCO)C(=O)c1ccccc1C2=O
AC50 [7]: 0.0471 µM (active)
EC50 (Protein RecA): < 0.018 µM (active)
AC50 [6]: 6.06 µM (active)

C/C(=N\NC(=O)c1nnn(-c2nonc2N)c1CN(C)c1ccccc1)c1ccccn1
CC50 [8]: 2.43 µM (active)

FC(F)(F)c1cc(CO[C@@H]2CCCN[C@@H]2c2ccccc2)cc(C(F)(F)F)c1
CC50 [8]: 24.2 µM (active)
IC50 [5]: > 20 µM (inactive)

O=[N+]([O-])c1ccc2c(c1)=[N+]([O-])C1(CCCCC1)[N+]=2[O-]
IC50 [9]: 4.85 µM (active)

O=C(Nc1nc2ccccc2s1)C1CC(=O)N(c2ccccc2)C1 (configuration not stated)
EC50 [4]: 8.11 µM (active)

CCC(=O)N(C)C[C@H]1Oc2cc(/C=C/c3ccccc3)ccc2S(=O)(=O)N([C@@H](C)CO)C[C@H]1C
AC50 [10]: 20.7 µM (active)

CN(C)CCCOc1ccc(-c2cc3nc(NCc4cccnc4)n(C)c(=O)c3s2)cn1
AC50 [6]: 11.2 µM (active)

COc1ccccc1/C=C1\SC(=S)N(CCC(=O)Nc2nnc(C)s2)C1=O
IC50 [3]: > 80 µM (inactive)

CC(C)(C)NC(=S)N/N=C/c1cc(Br)c(O)c(Br)c1
EC50 [11]: 32.2 µM (active)
EC50 (HEK293 [12]): 5.75 µM (active)
IC50 (HEK293 [13]): > 20 µM (inactive)
EC50 [14]: 2.86 µM (active)
IC50 (HEK293 [15]): > 20 µM (inactive)
IC50 (HEK293 [16]): 16.9 µM (inactive)

CC1Cc2ccccc2N1S(=O)(=O)c1cnc(Cl)c(Br)c1 (configuration not stated)
IC50 [3]: 69.3 µM (inactive)

COc1ccc(NC(=O)c2nnn(Cc3cccc(F)c3)c2N)c(OC)c1
IC50 [3]: > 80 µM (inactive)

CSC1CCCCC1(O)CSc1nc2c(cc1C#N)CCCC2 (configuration not stated)
EC50 [17]: 14.1 µM (active)
EC50 [18]: 22.3 µM (active)
EC50 [19]: > 120 µM (not active)
IC50 [3]: > 80 µM (inactive)

CC/C(NCc1ccc2c(c1)OCO2)=C1/C(=O)NC(=O)N(C2CCCCC2)C1=O
EC50 [4]: 5.15 µM (active)

CN1CCN(c2ccc(N)c(N3CCN(C)CC3)c2)CC1
IC50 [5]: > 20 µM (inactive)
IC50 [20]: 33.3 µM (active)

CC(C)C[C@H](NC(=O)c1[nH]cnc1C(=O)NC(c1ccccc1)c1ccccc1)C(=O)OC(C)(C)C
AC50 [21]: 3.44 µM (active)
CC50 (Vero): 19.3 µM (active)

CSc1ccc(C(=O)/C=C/c2ccc(N)cc2)cc1
CC50 (Vero): 18.7 µM (active)

CCN(CC)CCOCCOc1ccc(Cl)c2ccccc12
CC50 (Vero): > 25 µM (active)

COc1ccc(C(=O)Nc2ccccc2C(=O)NCc2ccco2)cc1OC
IC50 [3]: > 80 µM (inactive)

COC(=O)/C=C\C(C#N)(C#N)N=Cc1ccc(OC)cc1
CC50 (Vero): > 25 µM (active)

C=CCOc1ccc(C2C(C#N)=C(N)N(Nc3ccccc3)C3=C2C(=O)CC(C)(C)C3)cc1OC (configuration not stated)
CC50 [8]: 35.8 µM (active)
